PubChem BioAssay (NCI)
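Results reflect a 48-hour exposure of cells in 96-well plates to compound at five concentrations. The concentration for 50% growth inhibition is given as GI50. TGI denotes the concentration required for complete inhibition of growth.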

Columns and labels:
Test in all cases: inhibition of tumour cell growth, NCI panel, 48 h
786-0 renal = tested on: 786-0 renal
A498 renal = tested on: A498 renal
A549 NSCLC = tested on: A549 NSCLC
ACHN renal = tested on: ACHN renal
BT-549 breast = tested on: BT-549 breast
CAKI-1 renal = tested on: CAKI-1 renal
CCRF-CEM leukemia = tested on: CCRF-CEM leukemia
COLO 205 colon = tested on: COLO 205 colon
DU-145 prostate = tested on: DU-145 prostate
EKVX NSCLC = tested on: EKVX NSCLC
HCC-2998 colon = tested on: HCC-2998 colon
HCT-116 colon = tested on: HCT-116 colon
HCT-15 colon = tested on: HCT-15 colon
HL-60(TB) leukemia = tested on: HL-60(TB) leukemia
HOP-62 NSCLC = tested on: HOP-62 NSCLC
HOP-92 NSCLC = tested on: HOP-92 NSCLC
HS 578T breast = tested on: HS 578T breast
HT29 colon = tested on: HT29 colon
IGROV1 ovarian = tested on: IGROV1 ovarian
K-562 leukemia = tested on: K-562 leukemia
KM12 colon = tested on: KM12 colon
LOX IMVI melanoma = tested on: LOX IMVI melanoma
M14 melanoma = tested on: M14 melanoma
MCF7 breast = tested on: MCF7 breast
MDA-MB-231 breast = tested on: MDA-MB-231 breast
MDA-MB-435 = tested on: MDA-MB-435
MOLT-4 leukemia = tested on: MOLT-4 leukemia
NCI-H226 lung = tested on: NCI-H226 lung
NCI-H23 lung = tested on: NCI-H23 lung
NCI-H460 lung = tested on: NCI-H460 lung
NCI-H522 lung = tested on: NCI-H522 lung
NCI/ADR-RES ovarian = tested on: NCI/ADR-RES ovarian
OVCAR-3 ovarian = tested on: OVCAR-3 ovarian
OVCAR-4 ovarian = tested on: OVCAR-4 ovarian
OVCAR-5 ovarian = tested on: OVCAR-5 ovarian
OVCAR-8 ovarian = tested on: OVCAR-8 ovarian
PC-3 prostate = tested on: PC-3 prostate
RXF 393 renal = tested on: RXF 393 renal
SF-268 CNS = tested on: SF-268 CNS
SF-295 CNS = tested on: SF-295 CNS
SF-539 CNS = tested on: SF-539 CNS
SK-MEL-2 melanoma = tested on: SK-MEL-2 melanoma
SK-MEL-28 melanoma = tested on: SK-MEL-28 melanoma
SK-MEL-5 melanoma = tested on: SK-MEL-5 melanoma
SK-OV-3 ovarian = tested on: SK-OV-3 ovarian
SN12C renal = tested on: SN12C renal
SNB-19 CNS = tested on: SNB-19 CNS
SR leukemia = tested on: SR leukemia
SW-620 colon = tested on: SW-620 colon
T-47D breast = tested on: T-47D breast
TK-10 renal = tested on: TK-10 renal
U251 CNS = tested on: U251 CNS
UACC-257 melanoma = tested on: UACC-257 melanoma
UACC-62 melanoma = tested on: UACC-62 melanoma
UO-31 renal = tested on: UO-31 renal

COc1cc(/C=C2\CC3C4CC=C5CC(OC(C)=O)CC[C@]5(C)C4CC[C@]3(C)C2=O)ccc1OCCN1CCCC1 (some centres not stated)
GI50 (786-0 renal): 4.51 µM | TGI (786-0 renal): 14 µM | GI50 (A498 renal): 23.7 µM | TGI (A498 renal): 43.5 µM | GI50 (A549 NSCLC): 7.98 µM | TGI (A549 NSCLC): > 48.6 µM | GI50 (ACHN renal): 5.52 µM | TGI (ACHN renal): 17.9 µM | GI50 (BT-549 breast): 14.7 µM | TGI (BT-549 breast): 38.3 µM | GI50 (CAKI-1 renal): 13.1 µM | TGI (CAKI-1 renal): 27 µM | GI50 (CCRF-CEM leukemia): 0.268 µM | TGI (CCRF-CEM leukemia): 1.78 µM | GI50 (COLO 205 colon): 4.83 µM | TGI (COLO 205 colon): > 63.8 µM | GI50 (DU-145 prostate): 13.6 µM | TGI (DU-145 prostate): 26.6 µM | GI50 (EKVX NSCLC): 18 µM | TGI (EKVX NSCLC): 35.4 µM | GI50 (HCC-2998 colon): 12.5 µM | TGI (HCC-2998 colon): 25 µM | GI50 (HCT-116 colon): 1.52 µM | TGI (HCT-116 colon): 3.14 µM | GI50 (HCT-15 colon): 1.91 µM | TGI (HCT-15 colon): 5.3 µM | GI50 (HL-60(TB) leukemia): 2.78 µM | TGI (HL-60(TB) leukemia): 6.89 µM | GI50 (HOP-62 NSCLC): 9.52 µM | TGI (HOP-62 NSCLC): 23 µM | GI50 (HOP-92 NSCLC): 13.5 µM | TGI (HOP-92 NSCLC): 28.6 µM | GI50 (HS 578T breast): 20 µM | TGI (HS 578T breast): 42.7 µM | GI50 (HT29 colon): 0.646 µM | GI50 (IGROV1 ovarian): 5.81 µM | TGI (IGROV1 ovarian): > 44.7 µM | GI50 (K-562 leukemia): 1.08 µM | TGI (K-562 leukemia): 7.41 µM | GI50 (KM12 colon): 3.89 µM | TGI (KM12 colon): 15 µM | GI50 (LOX IMVI melanoma): 0.248 µM | TGI (LOX IMVI melanoma): 2.55 µM | GI50 (M14 melanoma): 1.42 µM | TGI (M14 melanoma): 2.9 µM | GI50 (MCF7 breast): 2.69 µM | TGI (MCF7 breast): > 22.4 µM | GI50 (MDA-MB-231 breast): 3.39 µM | TGI (MDA-MB-231 breast): 11.2 µM | GI50 (MDA-MB-435): 3.38 µM | TGI (MDA-MB-435): 13.1 µM | GI50 (MOLT-4 leukemia): 1.87 µM | TGI (MOLT-4 leukemia): 8.5 µM | GI50 (NCI-H226 lung): 14.1 µM | TGI (NCI-H226 lung): 30.9 µM | GI50 (NCI-H23 lung): 14.2 µM | TGI (NCI-H23 lung): 27.7 µM | GI50 (NCI-H460 lung): 2.54 µM | GI50 (NCI-H522 lung): 10.5 µM | TGI (NCI-H522 lung): 26.6 µM | GI50 (NCI/ADR-RES ovarian): 12 µM | TGI (NCI/ADR-RES ovarian): 24.9 µM | GI50 (OVCAR-3 ovarian): 3 µM | TGI (OVCAR-3 ovarian): 10.5 µM | GI50 (OVCAR-4 ovarian): 2.38 µM | TGI (OVCAR-4 ovarian): > 19.6 µM | GI50 (OVCAR-5 ovarian): 13.4 µM | TGI (OVCAR-5 ovarian): 26.4 µM | GI50 (OVCAR-8 ovarian): 13.8 µM | TGI (OVCAR-8 ovarian): 47 µM | GI50 (PC-3 prostate): 8.47 µM | TGI (PC-3 prostate): 23.2 µM | GI50 (RXF 393 renal): 3.01 µM | TGI (RXF 393 renal): 11.6 µM | GI50 (SF-268 CNS): 8.53 µM | TGI (SF-268 CNS): 26.7 µM | GI50 (SF-295 CNS): 4.8 µM | TGI (SF-295 CNS): 11.8 µM | GI50 (SF-539 CNS): 3.63 µM | TGI (SF-539 CNS): 9.82 µM | GI50 (SK-MEL-2 melanoma): 6.99 µM | TGI (SK-MEL-2 melanoma): 23.7 µM | GI50 (SK-MEL-28 melanoma): 2.54 µM | GI50 (SK-MEL-5 melanoma): 1.38 µM | TGI (SK-MEL-5 melanoma): 2.86 µM | GI50 (SK-OV-3 ovarian): 23.7 µM | TGI (SK-OV-3 ovarian): > 63.9 µM | GI50 (SN12C renal): 13.7 µM | TGI (SN12C renal): 26.6 µM | GI50 (SNB-19 CNS): 23.6 µM | TGI (SNB-19 CNS): > 66.9 µM | GI50 (SR leukemia): 0.708 µM | TGI (SR leukemia): 2.87 µM | GI50 (SW-620 colon): 4.89 µM | TGI (SW-620 colon): 22.9 µM | GI50 (T-47D breast): 5.4 µM | TGI (T-47D breast): > 91 µM | GI50 (TK-10 renal): 7.25 µM | TGI (TK-10 renal): 19.6 µM | GI50 (U251 CNS): 4.2 µM | TGI (U251 CNS): 14.7 µM | GI50 (UACC-257 melanoma): 2.09 µM | TGI (UACC-257 melanoma): 4.2 µM | GI50 (UACC-62 melanoma): 1.93 µM | TGI (UACC-62 melanoma): 3.85 µM | GI50 (UO-31 renal): 8.67 µM | TGI (UO-31 renal): 23.5 µM
